Patent US20050232975A1, “Composition and method to improve quality and yield of meat products” (priority 2002, published 2005)

Assays:
Assay type in all cases: in vivo
[1] = Vitamin C in the blood after oral administration to cattle
Method: Applicants have learned that oral administration of Vitamin C to cattle results in measurable Vitamin C in the blood in about 45 minutes. These blood levels reach a maximum level between about 45 minutes and about 2 hours. In certain embodiments, Applicants orally administer their composition to a meat-producing animal about 45 minutes prior to harvest. In certain embodiments, Applicants orally administer their composition to a meat-producing animal about 2 hours prior to harvest. In certain embodiments, Applicants orally administer their composition to a meat-producing animal about 6 hours prior to harvest. In certain embodiments, Applicants orally administer their composition to a meat-producing animal about 18 hours prior to harvest. In certain embodiments, Applicants orally administer their composition to a meat-producing animal about 24 hours prior to harvest. In certain embodiments, Applicants orally administer their composition to a meat-producing animal about 48 hours prior to harvest

beef cattle [2] = experiment: Example II: pH of meat cuts post-harvest after one-time oral administration to beef cattle pre-harvest; details: about 6 hours prior to harvest
Method: To study the dose/response efficacy of a one-time administration of Vitamin C to beef cattle on the pH of various cuts of meat prepared post-harvest, Applicants' studied four (4) treatments. Those treatments were is administered orally to 4 head of cattle about 6 hours prior to harvest. In a first control treatment, no Vitamin C was administered. In a second treatment, the animal's feed included about 50 grams of a phosphorylated Vitamin C sold in commerce by Roche Vitamins, Inc. under the name Rovimix® Stay-C®. In a third treatment, the animal's feed included about 100 grams of Rovimix® Stay-C®. In a fourth treatment, the animal's feed included about 150 grams of Rovimix® Stay-C®.
In treatments 2, 3, and 4, the phosphorylated Vitamin C was disposed in about 200 grams of grapefruit pulp. That Vitamin C/grapefruit pulp was orally administered to each of the cattle as a one-time bolus. In treatment 1, the control cattle were administered their normal diet.

beef cattle [3] = experiment: Example I: water retention (drip loss, moisture, free/bound/immobile water) of meat cuts after one-time oral administration to beef cattle pre-harvest; set-up: Total moisture: unit not given here; details: about 6 hours prior to harvest
Method: To study the dose/response efficacy of a one-time administration of Vitamin C to beef cattle on the water retention of various cuts of meat prepared post-harvest, Applicants' studied four (4) treatments. Those treatments were is administered orally to 4 head of cattle about 6 hours prior to harvest. In a first control treatment, no Vitamin C was administered. In a second treatment, the animal's feed included about 50 grams of a phosphorylated Vitamin C sold in commerce by Roche Vitamins, Inc. under the name Rovimix® Stay-C®. In a third treatment, the animal's feed included about 100 grams of Rovimix® Stay-C®. In a fourth treatment, the animal's feed included about 150 grams of Rovimix® Stay-C®. Table I summarizes the results of this Example I. In treatments 2, 3, and 4, the phosphorylated Vitamin C was disposed in about 200 grams of grapefruit pulp. That Vitamin C/grapefruit pulp was orally administered to each of the cattle as a one-time drench. In treatment 1, the control cattle were administered the normal diet. By “LD,” Applicants mean meat products comprising the Longissimus dorsi muscle. These cuts are sold in commerce as, for example, strip loins. By “SM,” Applicants mean meat products comprising the Semimembranosus/adductor muscle. These cuts are sold in commerce as, for example, top round or inside round. By “TRI,” Applicants mean products comprising the triceps brachii muscle sometimes called the shoulder clod. These cuts are sold in commerce as, for example, beef roasts.

[4] = 0 min after harvest, 50 grams oral
[5] = 0 min after harvest, 100 grams oral
[6] = 0 min after harvest, 150 grams oral
[7] = 30 min after harvest, 50 grams oral
[8] = 30 min after harvest, 100 grams oral
[9] = 30 min after harvest, 150 grams oral
[10] = 60 min after harvest, 50 grams oral
[11] = 60 min after harvest, 100 grams oral
[12] = 60 min after harvest, 150 grams oral
[13] = 90 min after harvest, 50 grams oral
[14] = 90 min after harvest, 100 grams oral
[15] = 90 min after harvest, 150 grams oral
[16] = 120 min after harvest, 50 grams oral
[17] = 120 min after harvest, 100 grams oral
[18] = 120 min after harvest, 150 grams oral
[19] = 150 min after harvest, 50 grams oral
[20] = 150 min after harvest, 100 grams oral
[21] = 150 min after harvest, 150 grams oral
[22] = 180 min after harvest, 50 grams oral
[23] = 180 min after harvest, 100 grams oral
[24] = 180 min after harvest, 150 grams oral

O=C1O[C@H]([C@@H](O)CO)C(O)=C1O [Vitamin C, L-ascorbic acid]
time to measurable Vitamin C in the blood ([1]; bovine, in vivo, po): about 45 minutes | time at which blood levels reach a maximum level ([1]; oral administration to cattle): about 45 minutes and about 2 hours | Measured pH Of Beef Roast (beef cattle [2]; [4]): 6.82 | Measured pH Of Strip Loin (beef cattle [2]; [4]): 6.78 | Measured pH Of Top Round Cuts (beef cattle [2]; [4]): 6.70 | Measured pH Of Beef Roast (beef cattle [2]; [5]): 6.73 | Measured pH Of Strip Loin (beef cattle [2]; [5]): 6.78 | Measured pH Of Top Round Cuts (beef cattle [2]; [5]): 6.70 | Measured pH Of Beef Roast (beef cattle [2]; [6]): 6.77 | Measured pH Of Strip Loin (beef cattle [2]; [6]): 6.76 | Measured pH Of Top Round Cuts (beef cattle [2]; [6]): 6.64 | Measured pH Of Beef Roast (beef cattle [2]; [7]): 6.41 | Measured pH Of Strip Loin (beef cattle [2]; [7]): 6.45 | Measured pH Of Top Round Cuts (beef cattle [2]; [7]): 6.46 | Measured pH Of Beef Roast (beef cattle [2]; [8]): 6.43 | Measured pH Of Strip Loin (beef cattle [2]; [8]): 6.45 | Measured pH Of Top Round Cuts (beef cattle [2]; [8]): 6.44 | Measured pH Of Beef Roast (beef cattle [2]; [9]): 6.44 | Measured pH Of Strip Loin (beef cattle [2]; [9]): 6.36 | Measured pH Of Top Round Cuts (beef cattle [2]; [9]): 6.47 | Measured pH Of Beef Roast (beef cattle [2]; [10]): 6.19 | Measured pH Of Strip Loin (beef cattle [2]; [10]): 6.22 | Measured pH Of Top Round Cuts (beef cattle [2]; [10]): 6.12 | Measured pH Of Beef Roast (beef cattle [2]; [11]): 6.19 | Measured pH Of Strip Loin (beef cattle [2]; [11]): 6.25 | Measured pH Of Top Round Cuts (beef cattle [2]; [11]): 6.36 | Measured pH Of Beef Roast (beef cattle [2]; [12]): 6.26 | Measured pH Of Strip Loin (beef cattle [2]; [12]): 6.22 | Measured pH Of Top Round Cuts (beef cattle [2]; [12]): 6.20 | Measured pH Of Beef Roast (beef cattle [2]; [13]): 6.11 | Measured pH Of Strip Loin (beef cattle [2]; [13]): 6.00 | Measured pH Of Top Round Cuts (beef cattle [2]; [13]): 5.84 | Measured pH Of Beef Roast (beef cattle [2]; [14]): 6.05 | Measured pH Of Strip Loin (beef cattle [2]; [14]): 6.02 | Measured pH Of Top Round Cuts (beef cattle [2]; [14]): 6.05 | Measured pH Of Beef Roast (beef cattle [2]; [15]): 6.06 | Measured pH Of Strip Loin (beef cattle [2]; [15]): 6.07 | Measured pH Of Top Round Cuts (beef cattle [2]; [15]): 5.91 | Measured pH Of Beef Roast (beef cattle [2]; [16]): 6.10 | Measured pH Of Strip Loin (beef cattle [2]; [16]): 5.83 | Measured pH Of Top Round Cuts (beef cattle [2]; [16]): 5.75 | Measured pH Of Beef Roast (beef cattle [2]; [17]): 5.96 | Measured pH Of Strip Loin (beef cattle [2]; [17]): 5.78 | Measured pH Of Top Round Cuts (beef cattle [2]; [17]): 5.81 | Measured pH Of Beef Roast (beef cattle [2]; [18]): 5.91 | Measured pH Of Strip Loin (beef cattle [2]; [18]): 5.88 | Measured pH Of Top Round Cuts (beef cattle [2]; [18]): 5.78 | Measured pH Of Beef Roast (beef cattle [2]; [19]): 6.01 | Measured pH Of Strip Loin (beef cattle [2]; [19]): 5.75 | Measured pH Of Top Round Cuts (beef cattle [2]; [19]): 5.60 | Measured pH Of Beef Roast (beef cattle [2]; [20]): 5.89 | Measured pH Of Strip Loin (beef cattle [2]; [20]): 5.76 | Measured pH Of Top Round Cuts (beef cattle [2]; [20]): 5.59 | Measured pH Of Beef Roast (beef cattle [2]; [21]): 5.80 | Measured pH Of Strip Loin (beef cattle [2]; [21]): 5.66 | Measured pH Of Top Round Cuts (beef cattle [2]; [21]): 5.67 | Measured pH Of Beef Roast (beef cattle [2]; [22]): 5.87 | Measured pH Of Strip Loin (beef cattle [2]; [22]): 5.67 | Measured pH Of Top Round Cuts (beef cattle [2]; [22]): 5.53 | Measured pH Of Beef Roast (beef cattle [2]; [23]): 5.83 | Measured pH Of Strip Loin (beef cattle [2]; [23]): 5.59 | Measured pH Of Top Round Cuts (beef cattle [2]; [23]): 5.55 | Measured pH Of Beef Roast (beef cattle [2]; [24]): 5.79 | Measured pH Of Strip Loin (beef cattle [2]; [24]): 5.50 | Measured pH Of Top Round Cuts (beef cattle [2]; [24]): 5.57 | Percent moisture (beef cattle [3]; LD cut, 50 grams oral): 0.7021 | Total moisture (beef cattle [3]; LD cut, 50 grams oral): 384.78 | Total moisture (beef cattle [3]; LD cut, 100 grams oral): 366.33 | Bound water (beef cattle [3]; LD cut, 150 grams oral): 78.6805% | Free water (beef cattle [3]; LD cut, 150 grams oral): 21.3195% | Immobile water (beef cattle [3]; LD cut, 150 grams oral): 57.3609% | Total moisture (beef cattle [3]; LD cut, 150 grams oral): 354.2 | Bound water (beef cattle [3]; SM cut, 50 grams oral): 80.5196% | Free water (beef cattle [3]; SM cut, 50 grams oral): 19.4804% | Immobile water (beef cattle [3]; SM cut, 50 grams oral): 61.0392% | Percent moisture (beef cattle [3]; SM cut, 50 grams oral): 0.6522 | Total moisture (beef cattle [3]; SM cut, 50 grams oral): 353.36 | Bound water (beef cattle [3]; SM cut, 100 grams oral): 83.959% | Free water (beef cattle [3]; SM cut, 100 grams oral): 16.041% | Immobile water (beef cattle [3]; SM cut, 100 grams oral): 67.918% | Total moisture (beef cattle [3]; SM cut, 100 grams oral): 365.7 | Bound water (beef cattle [3]; SM cut, 150 grams oral): 75.6853% | Free water (beef cattle [3]; SM cut, 150 grams oral): 24.3147% | Immobile water (beef cattle [3]; SM cut, 150 grams oral): 51.3706% | Total moisture (beef cattle [3]; SM cut, 150 grams oral): 371.99 | Bound water (beef cattle [3]; TRI cut, 50 grams oral): 77.269% | Free water (beef cattle [3]; TRI cut, 50 grams oral): 22.731% | Immobile water (beef cattle [3]; TRI cut, 50 grams oral): 54.5381% | Percent moisture (beef cattle [3]; TRI cut, 50 grams oral): 0.7019 | Total moisture (beef cattle [3]; TRI cut, 50 grams oral): 376.45 | Total moisture (beef cattle [3]; TRI cut, 100 grams oral): 361.8 | Bound water (beef cattle [3]; TRI cut, 150 grams oral): 81.0096% | Free water (beef cattle [3]; TRI cut, 150 grams oral): 18.9904% | Immobile water (beef cattle [3]; TRI cut, 150 grams oral): 62.0192% | Total moisture (beef cattle [3]; TRI cut, 150 grams oral): 399.11
